The text below walks through data of patent US9809623B2, “α4β7 peptide monomer and dimer antagonists” (Protagonist Therapeutics, Inc., priority 2014, dated 2017).

Numbered stars: 1 amine (or outer) side, 2 acyl side, 3 side chain; on linkers, the order of the positions; unused ones are H or OH. Bridge positions count the residues as written; N and C are the ends. Square brackets hold non-standard residues; d marks the D form. Peptide text beside a SMILES is read from it. I, II: the chains in the order shown. Phe(4-COOH) = N[C@@H](Cc1ccc(C(=O)O)cc1)C(=O)O; Phe(2,4-Cl2) = N[C@@H](Cc1ccc(Cl)cc1Cl)C(=O)O; 2Nal = N[C@@H](Cc1ccc2ccccc2c1)C(=O)O; Diglycolyl = O=C(COCC(=O)[*:2])[*:1]; NMeR = CN[C@@H](CCCNC(=N)N)C(=O)O; Pen = CC(C)(S)[C@H](N)C(=O)O

Chain of α4β7 (P13612 34-1032): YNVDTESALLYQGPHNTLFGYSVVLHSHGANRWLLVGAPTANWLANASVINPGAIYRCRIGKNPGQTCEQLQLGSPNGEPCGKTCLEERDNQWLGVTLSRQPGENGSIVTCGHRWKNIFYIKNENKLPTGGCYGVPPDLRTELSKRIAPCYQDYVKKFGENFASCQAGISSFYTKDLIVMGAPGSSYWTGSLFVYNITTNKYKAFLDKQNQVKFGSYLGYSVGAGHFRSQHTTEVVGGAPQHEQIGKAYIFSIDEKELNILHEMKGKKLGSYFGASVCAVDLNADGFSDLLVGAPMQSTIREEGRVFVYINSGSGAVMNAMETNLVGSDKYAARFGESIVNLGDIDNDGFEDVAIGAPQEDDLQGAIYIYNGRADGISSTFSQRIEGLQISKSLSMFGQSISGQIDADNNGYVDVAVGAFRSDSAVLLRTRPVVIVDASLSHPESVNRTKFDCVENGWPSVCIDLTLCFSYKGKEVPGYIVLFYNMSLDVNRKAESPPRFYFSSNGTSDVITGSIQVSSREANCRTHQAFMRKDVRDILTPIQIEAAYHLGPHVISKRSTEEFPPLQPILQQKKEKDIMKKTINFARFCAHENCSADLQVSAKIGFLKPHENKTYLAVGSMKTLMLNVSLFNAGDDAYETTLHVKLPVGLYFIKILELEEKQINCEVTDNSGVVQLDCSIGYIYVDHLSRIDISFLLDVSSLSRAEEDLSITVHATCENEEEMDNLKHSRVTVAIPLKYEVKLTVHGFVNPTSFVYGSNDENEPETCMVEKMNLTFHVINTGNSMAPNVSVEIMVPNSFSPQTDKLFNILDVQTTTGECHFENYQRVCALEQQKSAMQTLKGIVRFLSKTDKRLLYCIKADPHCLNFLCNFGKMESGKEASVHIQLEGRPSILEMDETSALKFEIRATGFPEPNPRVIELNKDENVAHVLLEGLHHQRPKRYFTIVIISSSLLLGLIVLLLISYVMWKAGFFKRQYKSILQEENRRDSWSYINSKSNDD
Chain of α4β7 (P26010 20-798): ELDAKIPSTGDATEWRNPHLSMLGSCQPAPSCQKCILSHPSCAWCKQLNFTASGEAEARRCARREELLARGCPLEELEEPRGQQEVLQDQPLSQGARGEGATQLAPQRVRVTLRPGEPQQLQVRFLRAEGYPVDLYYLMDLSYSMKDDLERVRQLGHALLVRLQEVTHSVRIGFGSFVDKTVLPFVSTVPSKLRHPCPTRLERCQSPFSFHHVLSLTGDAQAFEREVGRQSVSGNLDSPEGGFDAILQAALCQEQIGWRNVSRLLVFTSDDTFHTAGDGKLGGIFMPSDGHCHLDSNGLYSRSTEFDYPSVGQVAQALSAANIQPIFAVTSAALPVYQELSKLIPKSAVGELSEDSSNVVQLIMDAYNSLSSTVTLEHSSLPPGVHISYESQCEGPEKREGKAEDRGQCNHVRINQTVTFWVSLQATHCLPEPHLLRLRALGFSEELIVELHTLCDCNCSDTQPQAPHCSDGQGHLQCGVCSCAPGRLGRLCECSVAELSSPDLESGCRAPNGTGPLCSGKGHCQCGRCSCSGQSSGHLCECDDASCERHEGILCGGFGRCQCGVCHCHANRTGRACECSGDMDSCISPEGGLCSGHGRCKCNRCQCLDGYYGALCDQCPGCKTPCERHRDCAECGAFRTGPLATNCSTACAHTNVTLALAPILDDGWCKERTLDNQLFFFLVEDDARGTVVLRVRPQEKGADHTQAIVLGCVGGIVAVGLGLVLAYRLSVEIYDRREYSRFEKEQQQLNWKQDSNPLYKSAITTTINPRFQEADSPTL

For this assay, the target named is α4β7 (Homo sapiens, UniProt P13612+P26010). In words: α4β7-MAdCAM Cell Adhesion Assay (RPMI 8866 human cells). It counts as cell-based. On the set-up: host or cells: RPMI 8866 human B lymphoblastoid cells. The settings on record: Table 3-B, Potency (α4β7); range classes; read-out: α4β7 cell (Hu) IC50. In short, it runs like this:
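Washed RPMI 8866 cells (200,000/well) in DMEM with 0.1% BSA, 10 mM HEPES pH 7, 1 mM MnCl2 adhered to rh MAdCAM-1/Fc-coated wells with serially diluted peptides, 30-45 min at 37 °C. After three washes, bound cells quantified by MTT, A570, cell-free background subtracted for dose response.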
`CC(=O)N[C@@H]1C(=O)N(C)[C@@H](CCCNC(=N)N)C(=O)N[C@@H](CO)C(=O)N[C@@H](CC(=O)O)C(=O)N[C@@H]([C@@H](C)O)C(=O)N[C@@H](CC(C)C)C(=O)N[C@H](C(=O)N[C@@H](Cc2c[nH]cn2)C(=O)N[C@@H](CCC(=O)O)C(=O)N[C@H](CCCCNC(=O)COCC(=O)NCCCC[C@@H](NC(=O)[C@H](CCC(=O)O)NC(=O)[C@H](Cc2c[nH]cn2)NC(=O)[C@H]2NC(=O)[C@H](CC(C)C)NC(=O)[C@H]([C@@H](C)O)NC(=O)[C@H](CC(=O)O)NC(=O)[C@H](CO)NC(=O)[C@H](CCCNC(=N)N)N(C)C(=O)[C@@H](NC(C)=O)C(C)(C)SSC2(C)C)C(N)=O)C(N)=O)C(C)(C)SSC1(C)C` [compound 25] (I: Ac-[Pen][NMeR]SDTL[Pen]HE[dK]-NH2 / II: Ac-[Pen][NMeR]SDTL[Pen]HE[dK]-NH2; disulfide I:1-I:7, II:1-II:7; linker I:10-II:10 via Diglycolyl): the IC50 is 10 to 25 nM.
To `CC(=O)N[C@@H]1C(=O)N(C)[C@@H](CCCNC(=N)N)C(=O)N[C@@H](CO)C(=O)N[C@@H](CC(=O)O)C(=O)N[C@@H]([C@@H](C)O)C(=O)N[C@@H](CC(C)C)C(=O)N[C@H](C(=O)N[C@H](Cc2ccccc2)C(=O)N[C@@H](CCC(=O)O)C(=O)N[C@H](CCCCNC(=O)COCC(=O)NCCCC[C@@H](NC(=O)[C@H](CCC(=O)O)NC(=O)[C@@H](Cc2ccccc2)NC(=O)[C@H]2NC(=O)[C@H](CC(C)C)NC(=O)[C@H]([C@@H](C)O)NC(=O)[C@H](CC(=O)O)NC(=O)[C@H](CO)NC(=O)[C@H](CCCNC(=N)N)N(C)C(=O)[C@@H](NC(C)=O)C(C)(C)SSC2(C)C)C(N)=O)C(N)=O)C(C)(C)SSC1(C)C` [compound 30] (I: Ac-[Pen][NMeR]SDTL[Pen][dF]E[dK]-NH2 / II: Ac-[Pen][NMeR]SDTL[Pen][dF]E[dK]-NH2; disulfide I:1-I:7, II:1-II:7; linker I:10-II:10 via Diglycolyl) belongs 100 to 500 nM.
To `CC(=O)N[C@@H]1C(=O)N(C)[C@@H](CCCNC(=N)N)C(=O)N[C@@H](CO)C(=O)N[C@@H](CC(=O)O)C(=O)N[C@@H]([C@@H](C)O)C(=O)N[C@@H](CC(C)C)C(=O)N[C@H](C(=O)N[C@@H](Cc2c[nH]c3ccccc23)C(=O)N[C@H](CCCCNC(=O)COCC(=O)NCCCC[C@@H](NC(=O)[C@H](Cc2c[nH]c3ccccc23)NC(=O)[C@H]2NC(=O)[C@H](CC(C)C)NC(=O)[C@H]([C@@H](C)O)NC(=O)[C@H](CC(=O)O)NC(=O)[C@H](CO)NC(=O)[C@H](CCCNC(=N)N)N(C)C(=O)[C@@H](NC(C)=O)C(C)(C)SSC2(C)C)C(=O)O)C(=O)O)C(C)(C)SSC1(C)C` [compound 76] (I: Ac-[Pen][NMeR]SDTL[Pen]W[dK]-OH / II: Ac-[Pen][NMeR]SDTL[Pen]W[dK]-OH; disulfide I:1-I:7, II:1-II:7; linker I:9-II:9 via Diglycolyl) belongs 10 to 25 nM; to `CC(=O)N[C@@H]1C(=O)N(C)[C@@H](CCCNC(=N)N)C(=O)N[C@@H](CO)C(=O)N[C@@H](CC(=O)O)C(=O)N[C@@H](C(C)C)C(=O)N[C@@H](CC(C)C)C(=O)N[C@H](C(=O)N[C@@H](Cc2ccc3ccccc3c2)C(=O)N[C@H](CCC(=O)O)C(N)=O)C(C)(C)SSC1(C)C` [compound 156] (Ac-[Pen][NMeR]SDVL[Pen][2Nal][dE]-NH2; disulfide 1-7), 100 to 500 nM; to `CC(=O)N[C@@H]1C(=O)N(C)[C@@H](CCCNC(=N)N)C(=O)N[C@@H](CO)C(=O)N[C@@H](CC(=O)O)C(=O)N[C@@H]([C@@H](C)O)C(=O)N[C@@H](CC(C)C)C(=O)N[C@H](C(=O)N[C@@H](Cc2c[nH]c3ccccc23)C(=O)N[C@@H](CCC(N)=O)C(=O)N[C@H](CCCCNC(=O)COCC(=O)NCCCC[C@@H](NC(=O)[C@H](CCC(N)=O)NC(=O)[C@H](Cc2c[nH]c3ccccc23)NC(=O)[C@H]2NC(=O)[C@H](CC(C)C)NC(=O)[C@H]([C@@H](C)O)NC(=O)[C@H](CC(=O)O)NC(=O)[C@H](CO)NC(=O)[C@H](CCCNC(=N)N)N(C)C(=O)[C@@H](NC(C)=O)C(C)(C)SSC2(C)C)C(N)=O)C(N)=O)C(C)(C)SSC1(C)C` [compound 82] (I: Ac-[Pen][NMeR]SDTL[Pen]WQ[dK]-NH2 / II: Ac-[Pen][NMeR]SDTL[Pen]WQ[dK]-NH2; disulfide I:1-I:7, II:1-II:7; linker I:10-II:10 via Diglycolyl), 50 to 100 nM.
With `CC(=O)N[C@@H]1C(=O)N(C)[C@@H](CCCNC(=N)N)C(=O)N[C@@H](CO)C(=O)N[C@@H](CC(=O)O)C(=O)N[C@@H]([C@@H](C)O)C(=O)N[C@@H](CCC(N)=O)C(=O)N[C@H](C(=O)N[C@@H](Cc2ccc(C(C)(C)C)cc2)C(=O)N[C@@H](CCC(=O)O)CC(=O)N[C@H](CCCCNC(=O)CN(CC(=O)NCCCC[C@@H](NC(=O)C[C@H](CCC(=O)O)NC(=O)[C@H](Cc2ccc(C(C)(C)C)cc2)NC(=O)[C@H]2NC(=O)[C@H](CCC(N)=O)NC(=O)[C@H]([C@@H](C)O)NC(=O)[C@H](CC(=O)O)NC(=O)[C@H](CO)NC(=O)[C@H](CCCNC(=N)N)N(C)C(=O)[C@@H](NC(C)=O)C(C)(C)SSC2(C)C)C(N)=O)C(=O)CCN)C(N)=O)C(C)(C)SSC1(C)C` [compound 187], the IC50 was 100 to 500 nM.
Consider `CC[C@H](C)[C@@H]1NC(=O)[C@H](CCC(N)=O)NC(=O)[C@H](CO)NC(=O)[C@H](CCCNC(=N)N)N(C)C(=O)[C@@H](NC(C)=O)C(C)(C)SSC(C)(C)[C@@H](C(=O)N[C@@H](Cc2ccc(C(C)(C)C)cc2)C(=O)N[C@@H](CCC(=O)O)CC(=O)N[C@H](CCCCNC(=O)CN(CC(=O)NCCCC[C@@H](NC(=O)C[C@H](CCC(=O)O)NC(=O)[C@H](Cc2ccc(C(C)(C)C)cc2)NC(=O)[C@H]2NC(=O)[C@H](CCC(N)=O)NC(=O)[C@H]([C@@H](C)CC)NC(=O)[C@H](CCC(N)=O)NC(=O)[C@H](CO)NC(=O)[C@H](CCCNC(=N)N)N(C)C(=O)[C@@H](NC(C)=O)C(C)(C)SSC2(C)C)C(N)=O)C(=O)CCN)C(N)=O)NC(=O)[C@H](CCC(N)=O)NC1=O` [compound 190], for which the IC50 was above 100000 nM.
For `CC(=O)N[C@@H]1C(=O)N(C)[C@@H](CCCNC(=N)N)C(=O)N[C@@H](CO)C(=O)N[C@@H](CC(=O)O)C(=O)N[C@@H]([C@@H](C)O)C(=O)N[C@@H](CC(C)C)C(=O)N[C@H](C(=O)N[C@@H](Cc2ccc3ccccc3c2)C(=O)N[C@H](CCCNC(=N)N)C(=O)N[C@H](CCCCNC(=O)COCC(=O)NCCCC[C@@H](NC(=O)[C@@H](CCCNC(=N)N)NC(=O)[C@H](Cc2ccc3ccccc3c2)NC(=O)[C@H]2NC(=O)[C@H](CC(C)C)NC(=O)[C@H]([C@@H](C)O)NC(=O)[C@H](CC(=O)O)NC(=O)[C@H](CO)NC(=O)[C@H](CCCNC(=N)N)N(C)C(=O)[C@@H](NC(C)=O)C(C)(C)SSC2(C)C)C(N)=O)C(N)=O)C(C)(C)SSC1(C)C` [compound 120] (I: Ac-[Pen][NMeR]SDTL[Pen][2Nal][dR][dK]-NH2 / II: Ac-[Pen][NMeR]SDTL[Pen][2Nal][dR][dK]-NH2; disulfide I:1-I:7, II:1-II:7; linker I:10-II:10 via Diglycolyl), the IC50 was 1000 to 10000 nM.
On to `CC(=O)N[C@@H]1C(=O)N(C)[C@@H](CCCNC(=N)N)C(=O)N[C@@H](CO)C(=O)N[C@@H](CC(=O)O)C(=O)N[C@@H]([C@@H](C)O)C(=O)N[C@@H](CC(C)C)C(=O)N[C@H](C(=O)N[C@@H](Cc2ccc(Cl)cc2Cl)C(=O)N[C@H](CCC(=O)O)C(=O)N[C@H](CCCCNC(=O)COCC(=O)NCCCC[C@@H](NC(=O)[C@@H](CCC(=O)O)NC(=O)[C@H](Cc2ccc(Cl)cc2Cl)NC(=O)[C@H]2NC(=O)[C@H](CC(C)C)NC(=O)[C@H]([C@@H](C)O)NC(=O)[C@H](CC(=O)O)NC(=O)[C@H](CO)NC(=O)[C@H](CCCNC(=N)N)N(C)C(=O)[C@@H](NC(C)=O)C(C)(C)SSC2(C)C)C(N)=O)C(N)=O)C(C)(C)SSC1(C)C` [compound 101] (I: Ac-[Pen][NMeR]SDTL[Pen][Phe(2,4-Cl2)][dE][dK]-NH2 / II: Ac-[Pen][NMeR]SDTL[Pen][Phe(2,4-Cl2)][dE][dK]-NH2; disulfide I:1-I:7, II:1-II:7; linker I:10-II:10 via Diglycolyl), for which the IC50 was 50 to 100 nM.
With `CC(=O)N[C@@H]1C(=O)N(C)[C@@H](CCCNC(=N)N)C(=O)N[C@@H](CO)C(=O)N[C@@H](CC(=O)O)C(=O)N[C@@H]([C@@H](C)O)C(=O)N[C@@H](CC(C)C)C(=O)N[C@H](C(=O)N[C@@H](Cc2c[nH]c3ccccc23)C(=O)N[C@@H](Cc2ccc(C(=O)O)cc2)C(=O)N[C@H](CCCCNC(=O)COCC(=O)NCCCC[C@@H](NC(=O)[C@H](Cc2ccc(C(=O)O)cc2)NC(=O)[C@H](Cc2c[nH]c3ccccc23)NC(=O)[C@H]2NC(=O)[C@H](CC(C)C)NC(=O)[C@H]([C@@H](C)O)NC(=O)[C@H](CC(=O)O)NC(=O)[C@H](CO)NC(=O)[C@H](CCCNC(=N)N)N(C)C(=O)[C@@H](NC(C)=O)C(C)(C)SSC2(C)C)C(N)=O)C(N)=O)C(C)(C)SSC1(C)C` [compound 105] (I: Ac-[Pen][NMeR]SDTL[Pen]W[Phe(4-COOH)][dK]-NH2 / II: Ac-[Pen][NMeR]SDTL[Pen]W[Phe(4-COOH)][dK]-NH2; disulfide I:1-I:7, II:1-II:7; linker I:10-II:10 via Diglycolyl), the IC50 is 50 to 100 nM.
To `CC(=O)N[C@@H]1C(=O)N(C)[C@@H](CCCNC(=N)N)C(=O)N[C@@H](CO)C(=O)N[C@@H](CC(=O)O)C(=O)N[C@@H](CC(=O)O)C(=O)N[C@@H](CC(C)C)C(=O)N[C@H](C(=O)N[C@@H](Cc2ccc(C(C)(C)C)cc2)C(=O)N[C@@H](CCC(=O)O)CC(=O)N[C@H](CCCCNC(=O)CN(CC(=O)NCCCC[C@@H](NC(=O)C[C@H](CCC(=O)O)NC(=O)[C@H](Cc2ccc(C(C)(C)C)cc2)NC(=O)[C@H]2NC(=O)[C@H](CC(C)C)NC(=O)[C@H](CC(=O)O)NC(=O)[C@H](CC(=O)O)NC(=O)[C@H](CO)NC(=O)[C@H](CCCNC(=N)N)N(C)C(=O)[C@@H](NC(C)=O)C(C)(C)SSC2(C)C)C(N)=O)C(=O)CCN)C(N)=O)C(C)(C)SSC1(C)C` [compound 191] belongs 10000 to 100000 nM.

Usually IC50 stands for the concentration that inhibits the measured activity by half.
